Patent US20230277452A1, “COMPOSITIONS, DEVICES AND METHODS FOR TREATING NASAL, OTIC AND OTHER TISSUE INFECTION AND/OR INFLAMMATION” (priority 2020, published 2023)

How the values were obtained:
[1] = Recovery of force-degraded MFM spiked into placebo cream and of active cream (0.1% MFM), HPLC; type: physicochemical; settings: for Peak Area MFM / Peak Area RRT = 0.61 / Peak Area RRT = 0.71 / Peak Area RRT = 0.79 / Peak Area RRT = 0.87 / Peak Area RRT = 0.96 / Peak Area RRT = 1.07 / Peak Area RRT = 1.12 / Total MFM-Related Area: Spiked into placebo
Method: MFM neat and degraded materials were spiked into placebo cream (lot #2020-11-01) to investigate potential partitioning effects and peak interferences and to compare spiked and active cream samples by the procedure in Table 50 with the exception that for acid, base and peroxide degradations, the additions of HCl, NaOH and peroxide were calculated accordingly.
Percent recovery of Force-Degraded Materials Spiked into Placebo is provided in Table 51 below while recovery of active cream formulation (0.1% MFM) is provided in Table 52 below.

[2] = Forced degradation of neat mometasone furoate monohydrate, percent recovery and degradant peaks by HPLC; type: physicochemical; set-up: key to Degradant peak, RRT 0.61 with respect to MFM / Degradant peak, RRT 0.71 with respect to MFM / Degradant peak, RRT 0.79 with respect to MFM / Degradant peak, RRT 0.87* with respect to MFM / Degradant peak, RRT 1.07 with respect to MFM / Degradant peak, RRT 1.12* with respect to MFM / Degradant peak, RRT 0.96* with respect to MFM: ≥0.05% Peak Area; detected above the 0.05% cutoff; “—” indicates no peak; settings: for Degradant peak, RRT 0.87* with respect to MFM / Degradant peak, RRT 0.96* with respect to MFM / Degradant peak, RRT 1.12* with respect to MFM: related substance; for Actual Amount: neat MFM
Method: Degradation and impurity analysis of the creams was performed using HPLC. The following parameters were used for the analysis of mometasone furoate monohydrate.
Neat mometasone furoate monohydrate (MFM) material was degraded and analyzed for potential chromatographic interference. Briefly, neat MFM was exposed to various conditions to induce degradation including heat (60° C./5 days), light (6 inches away from a white bench light for 5 days), acid (0.1N HCl for 1 hour followed by neutralization with 0.1N NaOH), base (0.1N NaOH for 1 hour followed by neutralization with 0.1N HCl), and oxidation (3% H2O2 for 1 hour). All samples including the degraded samples, control samples (dissolved in HPLC-grade methanol), and the reference solution were analyzed.
Percent recovery is provided in Table 48 below for each condition.
Table 49 below provides the Relative Retention Times (RRTs) and detection ≥0.05% for the samples.

[3] = degraded neat material, 0.1N HC1
[4] = degraded neat material, 0.1N NaOH
[5] = degraded neat material, 3% H2O2
[6] = degraded neat material, 60° C. for 5 days
[7] = degraded neat material, White light for 5 days

degradation due to the cream making process ([1]; 0.1% MFM cream, HPLC): no apparent degradation | Peak Area MFM ([1]; Acid): 116.720 | Peak Area RRT = 0.61 ([1]; Acid): no peaks | Peak Area RRT = 0.71 ([1]; Acid): no peaks | Peak Area RRT = 0.79 ([1]; Acid): no peaks | Peak Area RRT = 0.87 ([1]; Acid): no peaks | Peak Area RRT = 0.96 ([1]; Acid): 2.964 | Peak Area RRT = 1.07 ([1]; Acid): 0.05 | Peak Area RRT = 1.12 ([1]; Acid): 0.353 | Total MFM-Related Area ([1]; Acid): 120.087 | Peak Area MFM ([1]; Base): 2.991 | Peak Area RRT = 0.61 ([1]; Base): 0.097 | Peak Area RRT = 0.71 ([1]; Base): 0.143 | Peak Area RRT = 0.79 ([1]; Base): 0.433 | Peak Area RRT = 0.87 ([1]; Base): 5.187 | Peak Area RRT = 0.96 ([1]; Base): 14.967 | Peak Area RRT = 1.07 ([1]; Base): 55.374 | Peak Area RRT = 1.12 ([1]; Base): 10.016 | Total MFM-Related Area ([1]; Base): 89.208 | Peak Area MFM ([1]; Control): 125.120 | Peak Area RRT = 0.61 ([1]; Control): no peaks | Peak Area RRT = 0.71 ([1]; Control): no peaks | Peak Area RRT = 0.79 ([1]; Control): no peaks | Peak Area RRT = 0.87 ([1]; Control): no peaks | Peak Area RRT = 0.96 ([1]; Control): 0.171 | Peak Area RRT = 1.07 ([1]; Control): no peaks | Peak Area RRT = 1.12 ([1]; Control): no peaks | Total MFM-Related Area ([1]; Control): 125.291 | Peak Area MFM ([1]; Heat): 122.536 | Peak Area RRT = 0.61 ([1]; Heat): no peaks | Peak Area RRT = 0.71 ([1]; Heat): no peaks | Peak Area RRT = 0.79 ([1]; Heat): no peaks | Peak Area RRT = 0.87 ([1]; Heat): no peaks | Peak Area RRT = 0.96 ([1]; Heat): 0.161 | Peak Area RRT = 1.07 ([1]; Heat): no peaks | Peak Area RRT = 1.12 ([1]; Heat): no peaks | Total MFM-Related Area ([1]; Heat): 122.697 | Peak Area MFM ([1]; Light): 123.671 | Peak Area RRT = 0.61 ([1]; Light): no peaks | Peak Area RRT = 0.71 ([1]; Light): no peaks | Peak Area RRT = 0.79 ([1]; Light): no peaks | Peak Area RRT = 0.87 ([1]; Light): no peaks | Peak Area RRT = 0.96 ([1]; Light): 0.152 | Peak Area RRT = 1.07 ([1]; Light): no peaks | Peak Area RRT = 1.12 ([1]; Light): no peaks | Total MFM-Related Area ([1]; Light): 123.823 | Peak Area MFM ([1]; Peroxide): 128.187 | Peak Area RRT = 0.61 ([1]; Peroxide): no peaks | Peak Area RRT = 0.71 ([1]; Peroxide): no peaks | Peak Area RRT = 0.79 ([1]; Peroxide): no peaks | Peak Area RRT = 0.87 ([1]; Peroxide): no peaks | Peak Area RRT = 0.96 ([1]; Peroxide): 0.176 | Peak Area RRT = 1.07 ([1]; Peroxide): no peaks | Peak Area RRT = 1.12 ([1]; Peroxide): no peaks | Total MFM-Related Area ([1]; Peroxide): 128.363 | Degradant peak, RRT 0.61 with respect to MFM [2, 4]: — | Degradant peak, RRT 0.71 with respect to MFM [2, 4]: — | Degradant peak, RRT 0.79 with respect to MFM [2, 4]: — | Degradant peak, RRT 0.87* with respect to MFM [2, 4]: — | Degradant peak, RRT 0.61 with respect to MFM [2, 5]: — | Degradant peak, RRT 0.71 with respect to MFM [2, 5]: — | Degradant peak, RRT 0.79 with respect to MFM [2, 5]: — | Degradant peak, RRT 1.07 with respect to MFM [2, 5]: — | Degradant peak, RRT 0.87* with respect to MFM [2, 5]: — | Degradant peak, RRT 1.12* with respect to MFM [2, 5]: — | Degradant peak, RRT 0.61 with respect to MFM [2, 6]: — | Degradant peak, RRT 0.71 with respect to MFM [2, 6]: — | Degradant peak, RRT 0.79 with respect to MFM [2, 6]: — | Degradant peak, RRT 1.07 with respect to MFM [2, 6]: — | Degradant peak, RRT 0.87* with respect to MFM [2, 6]: — | Degradant peak, RRT 1.12* with respect to MFM [2, 6]: — | Degradant peak, RRT 0.61 with respect to MFM [2, 7]: — | Degradant peak, RRT 0.71 with respect to MFM [2, 7]: — | Degradant peak, RRT 0.79 with respect to MFM [2, 7]: — | Degradant peak, RRT 1.07 with respect to MFM [2, 7]: — | Degradant peak, RRT 0.87* with respect to MFM [2, 7]: — | Degradant peak, RRT 0.96* with respect to MFM [2, 7]: — | Degradant peak, RRT 1.12* with respect to MFM [2, 7]: — | Actual Amount ([2]; Acid (0.1N HCl, 1 hour)): 240.289 µg/mL | Actual Amount ([2]; Base (0.1N NaOH, 1 hour)): 6.091 µg/mL | Actual Amount ([2]; Control): 254.279 µg/mL | Actual Amount ([2]; Heat (60° C./5 days)): 249.211 µg/mL | Actual Amount ([2]; Light (white light, 5 days)): 249.916 µg/mL | Actual Amount ([2]; Peroxide (3% H2O2, 1 hour)): 262.576 µg/mL | Degradant peak, RRT 0.61 with respect to MFM ([2]; neat material, 4° C. (Control)): — | Degradant peak, RRT 0.71 with respect to MFM ([2]; neat material, 4° C. (Control)): — | Degradant peak, RRT 0.79 with respect to MFM ([2]; neat material, 4° C. (Control)): — | Degradant peak, RRT 1.07 with respect to MFM ([2]; neat material, 4° C. (Control)): — | Degradant peak, RRT 0.87* with respect to MFM ([2]; neat material, 4° C. (Control)): — | Degradant peak, RRT 1.12* with respect to MFM ([2]; neat material, 4° C. (Control)): —
Structure (SMILES): C[C@@H]1C[C@H]2[C@@H]3CCC4=CC(=O)C=C[C@]4(C)[C@@]3(Cl)[C@@H](O)C[C@]2(C)[C@@]1(OC(=O)c1ccco1)C(=O)CCl [MFM, mometasone furoate monohydrate]
Degradant peak, RRT 0.61 with respect to MFM [2, 3]: detected (≥0.05% Peak Area; detected above the 0.05% cutoff) | Degradant peak, RRT 0.71 with respect to MFM [2, 3]: detected (≥0.05% Peak Area; detected above the 0.05% cutoff) | Degradant peak, RRT 0.79 with respect to MFM [2, 3]: detected (≥0.05% Peak Area; detected above the 0.05% cutoff) | Degradant peak, RRT 1.07 with respect to MFM [2, 3]: detected (≥0.05% Peak Area; detected above the 0.05% cutoff) | Degradant peak, RRT 0.87* with respect to MFM [2, 3]: detected (≥0.05% Peak Area; detected above the 0.05% cutoff) | Degradant peak, RRT 0.96* with respect to MFM [2, 3]: detected (≥0.05% Peak Area; detected above the 0.05% cutoff) | Degradant peak, RRT 1.12* with respect to MFM [2, 3]: detected (≥0.05% Peak Area; detected above the 0.05% cutoff) | Degradant peak, RRT 1.07 with respect to MFM [2, 4]: detected (≥0.05% Peak Area; detected above the 0.05% cutoff) | Degradant peak, RRT 0.96* with respect to MFM [2, 4]: detected (≥0.05% Peak Area; detected above the 0.05% cutoff) | Degradant peak, RRT 1.12* with respect to MFM [2, 4]: detected (≥0.05% Peak Area; detected above the 0.05% cutoff) | Degradant peak, RRT 0.96* with respect to MFM [2, 5]: detected (≥0.05% Peak Area; detected above the 0.05% cutoff) | Degradant peak, RRT 0.96* with respect to MFM [2, 6]: detected (≥0.05% Peak Area; detected above the 0.05% cutoff) | Degradant peak, RRT 0.96* with respect to MFM ([2]; neat material, 4° C. (Control)): detected (≥0.05% Peak Area; detected above the 0.05% cutoff)
